≈ marks a conversion by molar mass, not a printed value. Where a SMILES comes first, the peptide text is derived from it. [ ]: non-standard residue; d: D form.
Assays:
[1] = tested on: MRSA 3114; format: cell-based, Staphylococcus aureus; conditions: 3114
Procedure, shortened: (§1)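 Broth microdilution in MH medium: strains diluted to 2×10^6 CFU were mixed with equal volumes of twofold serial peptide dilutions in MH medium. MIC was taken as the lowest peptide concentration preventing bacterial growth.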

[2] = tested on: MRSA 3126; format: cell-based, Staphylococcus aureus; conditions: 3126
Procedure, shortened: as §1

[3] = tested on: multi-drug resistant bacteria; assay: MIC, summary statements for multi-drug resistant bacteria; format: cell-based
Procedure, shortened: as §1

[4] = tested on: S. aureus; assay: microbe, parasite or virus in culture; format: cell-based, Staphylococcus aureus
Procedure, shortened: as §1

[5] = tested on: S. typhimurium; assay: microbe, parasite or virus in culture; format: cell-based, Salmonella typhimurium
Procedure, shortened: as §1

[6] = tested on: MDRST 8007; assay: Minimal inhibitory concentration (MIC), single agent; format: cell-based, Salmonella typhimurium; conditions: agent alone
Procedure, shortened: as §1

[7] = tested on: E. coli; assay: microbe, parasite or virus in culture; format: cell-based, Escherichia coli; conditions: 16 h
Procedure, shortened: as §1

[8] = tested on: MDREC 1229; assay: microbe, parasite or virus in culture; format: cell-based, Escherichia coli
Procedure, shortened: as §1

[9] = tested on: B. subtilis; assay: microbe, parasite or virus in culture; format: cell-based, Bacillus subtilis
Procedure, shortened: as §1

[10] = tested on: E. coli; assay: MIC of antibiotic during combined treatment with antimicrobial peptide; format: cell-based, Escherichia coli; conditions: for Antibiotic MIC, Erythromycin / Antibiotic MIC, Linezolid / Antibiotic MIC, Vancomycin: E. coli
Procedure, shortened: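 Antibiotic diluted in MH medium, dispensed per well with peptide; setup repeated with roles reversed; MIC read per combination.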

[11] = tested on: MDRAB 12035; assay: microbe, parasite or virus in culture; format: cell-based, Acinetobacter baumannii
Procedure, shortened: as §1

[12] = tested on: A. baumannii; assay: microbe, parasite or virus in culture; format: cell-based, Acinetobacter baumannii
Procedure, shortened: as §1

[13] = tested on: MDRPA 2002; format: cell-based, Pseudomonas aeruginosa
Procedure, shortened: as §1

## CC[C@H](C)[C@H](NC(=O)[C@H](CCCCN)NC(=O)[C@H](Cc1c[nH]c2ccccc12)NC(=O)[C@@H](N)CCCNC(=N)N)C(=O)N[C@@H](Cc1ccccc1)C(=O)N[C@@H](CCCCN)C(=O)N[C@@H](CCCCN)C(=O)N[C@H](C(=O)N[C@H](CCCCN)C(=O)N[C@@H](CCCCN)C(=O)N[C@@H](CC(C)C)C(=O)N[C@@H](CC(C)C)C(=O)N[C@@H](Cc1c[nH]cn1)C(=O)N[C@@H](CO)C(=O)N[C@@H](Cc1ccccc1)C(=O)N[C@@H](CCCCN)C(=O)N[C@@H](CCCCN)C(=O)N[C@@H](Cc1ccccc1)C(N)=O)[C@@H](C)CC [PapMA-15, RWK IFK KIk KLL HSF KKF-NH2] (H-RWKIFKKI[dK]KLLHSFKKF-NH2; N-terminus assumed)
[1]
  Minimal inhibitory concentration MIC: >128 µg/mL
[2]
  Minimal inhibitory concentration MIC: >128 µg/mL
[3]
  Antibacterial activity relative to PapMA-1: twice to four times higher
[4]
  Minimal inhibitory concentration MIC: >128 µg/mL
[5]
  Minimal inhibitory concentration MIC: 32 µg/mL (≈ 13.5 µM)
[6]
  Minimal inhibitory concentration MIC: 64 µg/mL (≈ 26.9 µM)
[7]
  Minimal inhibitory concentration MIC: 32 µg/mL (≈ 13.5 µM)
[8]
  Minimal inhibitory concentration MIC: 32 µg/mL (≈ 13.5 µM)
  Peptide MIC, peptide alone: 32 µg/mL
[9]
  Minimal inhibitory concentration MIC: >128 µg/mL
[10]; E. coli and MDREC1229
  Synergistic effect of antibacterial activity with existing antibiotics compared with PapMA-1: level similar to that of the PapMA-1 peptide
[10]; erythromycin combined with peptide at 1 μg/ml
  Antibiotic MIC, Erythromycin: 64 µg/mL
[10]; erythromycin combined with peptide at 2 μg/ml
  Antibiotic MIC, Erythromycin: 32 µg/mL
[10]; erythromycin combined with peptide at 4 μg/ml
  Antibiotic MIC, Erythromycin: 16 µg/mL
[10]; erythromycin combined with peptide at 6 μg/ml
  Antibiotic MIC, Erythromycin: 2 µg/mL
[10]; erythromycin combined with peptide at 8 μg/ml
  Antibiotic MIC, Erythromycin: 1 µg/mL
[10]; erythromycin combined with peptide at 16 μg/ml
  Antibiotic MIC, Erythromycin: 0.25 µg/mL
[10]; erythromycin combined with peptide at 32 μg/ml
  Antibiotic MIC, Erythromycin: 0 µg/mL
[10]; erythromycin combined with peptide at 64 μg/ml
  Antibiotic MIC, Erythromycin: 0 µg/mL
[10]; linezolid combined with peptide at 1 μg/ml
  Antibiotic MIC, Linezolid: >128 µg/mL
[10]; linezolid combined with peptide at 2 μg/ml
  Antibiotic MIC, Linezolid: 128 µg/mL
[10]; linezolid combined with peptide at 4 μg/ml
  Antibiotic MIC, Linezolid: 32 µg/mL
[10]; linezolid combined with peptide at 6 μg/ml
  Antibiotic MIC, Linezolid: 16 µg/mL
[10]; linezolid combined with peptide at 8 μg/ml
  Antibiotic MIC, Linezolid: 16 µg/mL
[10]; linezolid combined with peptide at 16 μg/ml
  Antibiotic MIC, Linezolid: 8 µg/mL
[10]; linezolid combined with peptide at 32 μg/ml
  Antibiotic MIC, Linezolid: 0 µg/mL
[10]; linezolid combined with peptide at 64 μg/ml
  Antibiotic MIC, Linezolid: 0 µg/mL
[10]; vancomycin combined with peptide at 1 μg/ml
  Antibiotic MIC, Vancomycin: >128 µg/mL
[10]; vancomycin combined with peptide at 2 μg/ml
  Antibiotic MIC, Vancomycin: >128 µg/mL
[10]; vancomycin combined with peptide at 4 μg/ml
  Antibiotic MIC, Vancomycin: >128 µg/mL
[10]; vancomycin combined with peptide at 6 μg/ml
  Antibiotic MIC, Vancomycin: 64 µg/mL
[10]; vancomycin combined with peptide at 8 μg/ml
  Antibiotic MIC, Vancomycin: 32 µg/mL
[10]; vancomycin combined with peptide at 16 μg/ml
  Antibiotic MIC, Vancomycin: 16 µg/mL
[10]; vancomycin combined with peptide at 32 μg/ml
  Antibiotic MIC, Vancomycin: 0 µg/mL
[10]; vancomycin combined with peptide at 64 μg/ml
  Antibiotic MIC, Vancomycin: 0 µg/mL
[11]
  Minimal inhibitory concentration MIC: 32 µg/mL (≈ 13.5 µM)
  Peptide MIC, peptide alone: 32 µg/mL
[12]
  Minimal inhibitory concentration MIC: 32 µg/mL (≈ 13.5 µM)
  Peptide MIC, peptide alone: 32 µg/mL
[12]; A. baumannii and S. typhimurium
  Antibacterial activity relative to PapMA-1: at least twice as high
[13]
  Minimal inhibitory concentration MIC: 32 µg/mL (≈ 13.5 µM)

— patent publication US11214594B2, “Antimicrobial peptide having synergistic antibacterial effect with antibiotics on multidrug resistant bacteria, and use thereof” (priority 2016, dated 2022)
